Experimental data taken from patent publication US11639360B2, “Oxazine compound and application thereof” (DALIAN UNIVERSITY OF TECHNOLOGY, priority 2018, dated 2023).

Tests used:
[1] = Spectral test experiment (UV-vis spectrophotometer and fluorescence spectrometer); format: physicochemical; conditions: in dichloromethane
Method: The compound F-1 synthesized in Embodiment 1 was used, and F-1-DMSO solution was added into dichloromethane and mixed evenly. Spectral properties of the compound F-1 were tested by a UV-vis spectrophotometer and a fluorescence spectrometer. The results are shown in FIG. 2, wherein the F-1 molecules have the maximum absorption and the maximum emission at 680 nanometers and 700 nanometers in the dichloromethane respectively.
The compound F-2 synthesized in Embodiment 6 was used, and F-2-DMSO solution was added into dichloromethane and mixed evenly. Spectral properties of the […] were tested by a UV-vis spectrophotometer and a fluorescence spectrometer. The results are shown in FIG. 6, wherein the F-2 molecules have the maximum absorption and the maximum emission at 686 nanometers and 712 nanometers in the dichloromethane are respectively.
The compound F-3 synthesized in Embodiment 11 was used, and F-3-DMSO solution was added into dichloromethane and mixed evenly. Spectral properties of the […] were tested by a UV-vis spectrophotometer and a fluorescence spectrometer. The results are shown in FIG. 10, wherein the F-3 molecules have the maximum absorption and the maximum emission at 697 nanometers and 740 nanometers in the dichloromethane.

[2] = system: MCF-7 (human breast cancer cell); assay: In vitro cell anti-cancer test under illumination (MTT); format: cell-based; conditions: MTT cell survival rate; for killing effect on the cells under illumination: MCF-7, 30 minutes incubation, red light 660 nanometers; for killing effect on the cells without illumination: MCF-7, no illumination
Method: MCF-7 (human breast cancer cell) was planted in 96-well culture plates at a density of 5000 cells per well and cultured in a cell incubator for 24 hours (37° C., 5% CO2). The compound F-1 synthesized in Embodiment 1 was used, and F-1-DMSO solution was added into DMEM containing 10% fetal calf serum to prepare solutions with different concentrations, and the prepared solutions were added to the 96-well culture plates and placed in a cell incubator to incubate for 30 minutes, and then irradiated for a certain period by red light with a wavelength of 660 nanometers. After irradiation, 96 empty plates were placed in a cell incubator and continuously incubated for 12 hours. Then, 100 μl of culture medium containing 5 mg/ml MTT was added to each well, and incubated in a cell incubator for 4 hours. The culture solutions in the well of the plates were removed, 100 µl of DMSO was added to each well to fully dissolve MTT oxidation products, and then the absorbance of each well at 570 nanometers and 630 nanometers were measured with a microplate reader, and a cell survival rate was calculated.
MCF-7 (human breast cancer cell) was planted in 96-well culture plates at a density of 5000 cells per well and cultured in a cell incubator for 24 hours (37° C., 5% CO2). The compound F-2 synthesized in Embodiment 6 was used, and F-2-DMSO solution was added into DMEM containing 10% fetal calf serum to prepare solutions with different concentrations, and the prepared solutions were added to the 96-well culture plates and placed in the cell incubator to incubate for 30 minutes, and then irradiated for a certain period by red light with a wavelength of 660 nanometers. After irradiation, 96 empty plates were placed in a cell incubator and continuously incubated for 12 hours. Then, 100 μl of culture medium containing 5 mg/ml MTT was added to each well, and incubated in a cell incubator for 4 hours. The culture solutions in the well of the plates were removed, 100 µl of DMSO was added to each well to fully dissolve MTT oxidation products, and then the absorbance of each well at 570 nanometers and 630 nanometers were measured with a microplate reader, and a cell survival rate was calculated.
MCF-7 (human breast cancer cell) was planted in 96-well culture plates at a density of 5000 cells per well and cultured in a cell incubator for 24 hours (37° C., 5% CO2). The compound F-3 synthesized in Embodiment 11 was used, and […] was added into DMEM containing 10% fetal calf serum to prepare solutions with different concentrations, and the prepared solutions were added to the 96-well culture plates and placed in the cell incubator to incubate for 30 minutes, and then irradiated for a certain period by red light with a wavelength of 660 nanometers. After irradiation, 96 empty plates were placed in a cell incubator and continuously incubated for 12 hours. Then, 100 μl of culture medium containing 5 mg/ml MTT was added to each well, and incubated in a cell incubator for 4 hours. The culture solutions in the well of the plates were removed, 100 μl of DMSO was added to each well to fully dissolve MTT oxidation products, and then the absorbance of each well at 570 nanometers and 630 nanometers were measured with a microplate reader, and a cell survival rate was calculated.

[3] = Self-assembled nano drug-delivery system, scanning electron microscope; format: physicochemical; conditions: self-assembled in PBS or ultrapure water
Method: The compound F-1 synthesized in Embodiment 1 was used, and a proper amount of F-1-DMSO solution was added into a phosphate buffer (PBS) or ultrapure water as required. After shaking the mixture evenly, the compound F-1 could be self-assembled in the PBS or ultrapure water to form a nanoparticle system. It can be seen from FIG. 14 that the nanoparticles formed by the self-assembly of the compound F-1 in the nano-system are about 200 nanometers in size, regular in shape and uniform in size, and have excellent dispersion properties.

Structure (SMILES) | maximum absorption [1] | maximum emission [1] | killing effect on the cells under illumination [2] | killing effect on the cells without illumination [2] | size of nanoparticles formed by self-assembly [3]
CC/N=c1/cc2[te]c3c4c5c(cc3nc-2c2ccccc12)CCCN5CCC4 [Compound F-3] | 697 nanometers | 740 nanometers | obvious killing effect on the cells at low energy density of illumination | a certain killing effect on the cells without illumination | 
CC/N=c1/cc2sc3c4c5c(cc3nc-2c2ccccc12)CCCN5CCC4 [Compound F-1] | 680 nanometers | 700 nanometers | obvious killing effect on the cells | very small killing effect on the cells without illumination, and has almost no toxicity | about 200 nanometers
CC/N=c1/cc2[se]c3c4c5c(cc3nc-2c2ccccc12)CCCN5CCC4 [Compound F-2] | 686 nanometers | 712 nanometers | obvious killing effect on the cells at low energy density of illumination | very small killing effect on the cells without illumination, and has almost no toxicity | 
